Laboratory results reported in publication PMC12136037, “Type II kinase inhibitors that target Parkinson’s disease–associated LRRK2” (Science Advances, 2025).

Columns and labels:
Test in all cases: DSF 100 kinase selectivity screen;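 for dTm: compound tested at 20 µM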
Assay type in all cases: binding
[1] = biological target: T1, ~100 representative kinases (Homo sapiens, UniProt O15075); conditions: Protein DCAMKL1; average of three replicates
T1 construct: Recombinant protein kinase domains with a concentration of 2 μM
Summary of the method: (§1)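 Each kinase domain, at 2 μM, is mixed with 20 μM test compound and SYPRO Orange in Hepes (20 mM, pH 7.5) with 500 mM NaCl. Temperature is then raised at 3°C/min and fluorescence-monitored unfolding yields the melting temperature change, ΔTm in degrees Celsius.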

[2] = biological target: T2, ~100 representative kinases (Homo sapiens, UniProt O43293); conditions: Protein DAPK3; average of three replicates
T2 construct: Recombinant protein kinase domains with a concentration of 2 μM
Summary of the method: as §1

[3] = biological target: T3, ~100 representative kinases (Homo sapiens, UniProt O94768); conditions: Protein STK17B; DSF; average of three replicates
T3 construct: Recombinant protein kinase domains with a concentration of 2 μM
T3 sequence (O94768 1-372): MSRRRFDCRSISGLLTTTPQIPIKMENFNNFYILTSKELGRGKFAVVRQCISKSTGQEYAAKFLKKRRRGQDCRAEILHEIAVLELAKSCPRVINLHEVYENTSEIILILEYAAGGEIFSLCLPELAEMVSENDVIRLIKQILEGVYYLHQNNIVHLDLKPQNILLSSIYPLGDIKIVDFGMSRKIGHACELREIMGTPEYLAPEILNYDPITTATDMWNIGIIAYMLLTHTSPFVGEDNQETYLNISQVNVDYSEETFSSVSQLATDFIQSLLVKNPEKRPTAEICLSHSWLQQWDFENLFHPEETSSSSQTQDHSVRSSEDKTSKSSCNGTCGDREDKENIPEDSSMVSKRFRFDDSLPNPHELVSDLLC
Summary of the method: as §1

[4] = biological target: T4, ~100 representative kinases (Homo sapiens, UniProt O95747); conditions: protein OSR1; average of three replicates
T4 construct: Recombinant protein kinase domains with a concentration of 2 μM
Summary of the method: as §1

[5] = biological target: T5, ~100 representative kinases (Homo sapiens, UniProt P07332); conditions: protein FESA; average of three replicates
T5 construct: Recombinant protein kinase domains with a concentration of 2 μM
Summary of the method: as §1

[6] = biological target: T6, ~100 representative kinases (Homo sapiens, UniProt P28482); conditions: protein MAPK1; average of three replicates
T6 construct: Recombinant protein kinase domains with a concentration of 2 μM
Summary of the method: as §1

[7] = biological target: T7, ~100 representative kinases (Homo sapiens, UniProt P49759); conditions: Protein CLK1; average of three replicates
T7 construct: Recombinant protein kinase domains with a concentration of 2 μM
Summary of the method: as §1

[8] = biological target: T8, ~100 representative kinases (Homo sapiens, UniProt P49761); conditions: Protein CLK3; average of three replicates
T8 construct: Recombinant protein kinase domains with a concentration of 2 μM
Summary of the method: as §1

[9] = biological target: T9, ~100 representative kinases (Homo sapiens, UniProt P54764); conditions: Protein EPHA4; average of three replicates
T9 construct: Recombinant protein kinase domains with a concentration of 2 μM
Summary of the method: as §1

[10] = biological target: T10, ~100 representative kinases (Homo sapiens, UniProt Q13188); conditions: Protein STK3; DSF; average of three replicates
T10 construct: Recombinant protein kinase domains with a concentration of 2 μM
T10 sequence (Q13188 1-491): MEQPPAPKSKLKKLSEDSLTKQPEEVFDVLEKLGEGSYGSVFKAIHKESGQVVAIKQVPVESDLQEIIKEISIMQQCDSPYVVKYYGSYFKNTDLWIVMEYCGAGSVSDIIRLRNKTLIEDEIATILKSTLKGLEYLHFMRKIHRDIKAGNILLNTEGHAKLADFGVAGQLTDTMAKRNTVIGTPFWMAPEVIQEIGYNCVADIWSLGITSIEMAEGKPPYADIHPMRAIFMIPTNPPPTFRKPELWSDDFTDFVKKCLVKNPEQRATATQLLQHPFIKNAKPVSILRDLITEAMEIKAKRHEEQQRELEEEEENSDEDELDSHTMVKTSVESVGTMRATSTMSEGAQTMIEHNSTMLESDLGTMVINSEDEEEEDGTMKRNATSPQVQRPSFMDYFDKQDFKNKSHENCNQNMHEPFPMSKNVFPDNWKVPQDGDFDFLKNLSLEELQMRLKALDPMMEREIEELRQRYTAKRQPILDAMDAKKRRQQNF
Summary of the method: as §1

[11] = biological target: T11, ~100 representative kinases (Homo sapiens, UniProt Q86V86); conditions: protein PIM3; average of three replicates
T11 construct: Recombinant protein kinase domains with a concentration of 2 μM
Summary of the method: as §1

[12] = biological target: T12, ~100 representative kinases (Homo sapiens, UniProt Q96SB4); conditions: Protein SRPK1; DSF; average of three replicates
T12 construct: Recombinant protein kinase domains with a concentration of 2 μM
Summary of the method: as §1

[13] = biological target: T13, ~100 representative kinases (Homo sapiens, UniProt Q99986); conditions: Protein VRK1; DSF; average of three replicates
T13 construct: Recombinant protein kinase domains with a concentration of 2 μM
T13 sequence (Q99986 1-396): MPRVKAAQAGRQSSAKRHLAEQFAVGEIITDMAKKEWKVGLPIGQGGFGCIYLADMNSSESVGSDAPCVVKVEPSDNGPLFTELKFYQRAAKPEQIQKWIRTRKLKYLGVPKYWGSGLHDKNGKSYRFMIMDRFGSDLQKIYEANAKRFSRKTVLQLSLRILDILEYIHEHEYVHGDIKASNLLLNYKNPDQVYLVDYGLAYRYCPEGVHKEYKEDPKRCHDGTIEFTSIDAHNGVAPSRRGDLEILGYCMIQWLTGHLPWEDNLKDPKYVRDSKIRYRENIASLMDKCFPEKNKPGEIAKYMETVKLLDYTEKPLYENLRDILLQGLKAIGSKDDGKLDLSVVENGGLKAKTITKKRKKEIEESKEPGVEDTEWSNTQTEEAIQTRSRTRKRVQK
Summary of the method: as §1

[14] = biological target: T14, ~100 representative kinases (Homo sapiens, UniProt Q9UEW8); conditions: Protein STK39; DSF; average of three replicates
T14 construct: Recombinant protein kinase domains with a concentration of 2 μM
Summary of the method: as §1

[15] = biological target: T15, ~100 representative kinases (Homo sapiens, UniProt Q9Y243); conditions: Protein AKT3; average of three replicates
T15 construct: Recombinant protein kinase domains with a concentration of 2 μM
Summary of the method: as §1

[16] = biological target: T16, ~100 representative kinases (Homo sapiens, UniProt Q9Y6E0); conditions: protein MST3; average of three replicates
T16 construct: Recombinant protein kinase domains with a concentration of 2 μM
Summary of the method: as §1

[17] = system: ~100 representative kinases; conditions: for dTm: Protein BRD, average of three replicates; for # >5K: number of proteins of the DSF panel with dTm >5K; for S(5K): selectivity score: # >5K divided by # of proteins tested in the DSF panel
Summary of the method: as §1

T9 sequence (P54764 20-986): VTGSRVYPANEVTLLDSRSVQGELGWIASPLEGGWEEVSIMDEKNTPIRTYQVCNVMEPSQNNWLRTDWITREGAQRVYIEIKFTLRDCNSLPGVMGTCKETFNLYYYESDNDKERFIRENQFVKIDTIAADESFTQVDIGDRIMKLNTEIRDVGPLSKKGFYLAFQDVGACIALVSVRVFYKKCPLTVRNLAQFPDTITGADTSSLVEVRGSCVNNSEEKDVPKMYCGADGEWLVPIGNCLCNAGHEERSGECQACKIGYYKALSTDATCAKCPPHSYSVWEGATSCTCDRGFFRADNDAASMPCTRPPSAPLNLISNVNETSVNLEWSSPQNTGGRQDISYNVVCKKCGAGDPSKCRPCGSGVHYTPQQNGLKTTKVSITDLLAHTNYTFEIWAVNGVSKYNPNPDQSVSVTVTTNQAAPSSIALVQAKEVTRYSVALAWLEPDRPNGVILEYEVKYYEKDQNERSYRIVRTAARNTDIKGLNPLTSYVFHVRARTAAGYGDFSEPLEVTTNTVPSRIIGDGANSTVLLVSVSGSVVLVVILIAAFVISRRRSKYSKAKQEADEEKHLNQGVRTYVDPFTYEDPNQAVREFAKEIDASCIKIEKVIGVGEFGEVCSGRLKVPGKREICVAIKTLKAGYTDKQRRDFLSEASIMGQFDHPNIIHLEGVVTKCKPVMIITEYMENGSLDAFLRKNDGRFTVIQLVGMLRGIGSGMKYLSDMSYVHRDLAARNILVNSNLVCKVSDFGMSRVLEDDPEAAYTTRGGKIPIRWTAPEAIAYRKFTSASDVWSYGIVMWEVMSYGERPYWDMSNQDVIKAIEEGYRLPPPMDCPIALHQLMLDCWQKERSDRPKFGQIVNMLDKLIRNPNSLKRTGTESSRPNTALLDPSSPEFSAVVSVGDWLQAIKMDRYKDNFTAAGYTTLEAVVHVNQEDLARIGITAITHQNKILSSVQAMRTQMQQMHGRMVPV
T8 sequence (P49761 whole entry, the tested form may be a part): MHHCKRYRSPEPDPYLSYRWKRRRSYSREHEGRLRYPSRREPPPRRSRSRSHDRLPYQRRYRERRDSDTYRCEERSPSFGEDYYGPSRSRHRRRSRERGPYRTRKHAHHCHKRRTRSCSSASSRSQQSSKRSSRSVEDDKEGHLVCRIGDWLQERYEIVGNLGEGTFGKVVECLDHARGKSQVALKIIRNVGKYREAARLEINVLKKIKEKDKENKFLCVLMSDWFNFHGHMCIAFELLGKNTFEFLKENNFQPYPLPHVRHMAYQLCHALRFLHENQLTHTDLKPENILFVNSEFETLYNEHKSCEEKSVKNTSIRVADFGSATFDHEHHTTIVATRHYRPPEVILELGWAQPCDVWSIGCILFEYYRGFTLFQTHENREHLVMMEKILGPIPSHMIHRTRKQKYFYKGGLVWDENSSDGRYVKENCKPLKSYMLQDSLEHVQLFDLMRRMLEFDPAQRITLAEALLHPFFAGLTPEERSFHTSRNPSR
T2 sequence (O43293 whole entry, the tested form may be a part): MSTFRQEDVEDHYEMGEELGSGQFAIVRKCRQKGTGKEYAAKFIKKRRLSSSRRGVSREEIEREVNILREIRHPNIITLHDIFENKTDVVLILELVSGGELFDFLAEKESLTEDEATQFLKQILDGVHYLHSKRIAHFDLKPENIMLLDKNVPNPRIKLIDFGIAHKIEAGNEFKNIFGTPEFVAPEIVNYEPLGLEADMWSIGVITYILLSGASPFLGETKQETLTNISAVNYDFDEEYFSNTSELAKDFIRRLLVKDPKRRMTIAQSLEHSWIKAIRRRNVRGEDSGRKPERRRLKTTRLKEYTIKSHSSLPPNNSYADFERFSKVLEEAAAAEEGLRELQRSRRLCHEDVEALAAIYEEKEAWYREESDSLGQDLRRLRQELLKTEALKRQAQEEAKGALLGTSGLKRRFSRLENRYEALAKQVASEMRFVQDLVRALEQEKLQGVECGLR
T6 sequence (P28482 whole entry, the tested form may be a part): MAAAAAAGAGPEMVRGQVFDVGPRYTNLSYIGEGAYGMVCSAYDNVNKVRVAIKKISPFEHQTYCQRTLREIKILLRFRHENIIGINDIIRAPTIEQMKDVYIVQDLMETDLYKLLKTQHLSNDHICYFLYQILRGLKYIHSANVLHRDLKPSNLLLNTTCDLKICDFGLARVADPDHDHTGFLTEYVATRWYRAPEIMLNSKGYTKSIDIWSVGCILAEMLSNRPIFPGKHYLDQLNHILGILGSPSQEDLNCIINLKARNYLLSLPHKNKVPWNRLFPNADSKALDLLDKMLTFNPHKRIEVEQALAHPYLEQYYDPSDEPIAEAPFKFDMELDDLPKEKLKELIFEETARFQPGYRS
T7 sequence (P49759 whole entry, the tested form may be a part): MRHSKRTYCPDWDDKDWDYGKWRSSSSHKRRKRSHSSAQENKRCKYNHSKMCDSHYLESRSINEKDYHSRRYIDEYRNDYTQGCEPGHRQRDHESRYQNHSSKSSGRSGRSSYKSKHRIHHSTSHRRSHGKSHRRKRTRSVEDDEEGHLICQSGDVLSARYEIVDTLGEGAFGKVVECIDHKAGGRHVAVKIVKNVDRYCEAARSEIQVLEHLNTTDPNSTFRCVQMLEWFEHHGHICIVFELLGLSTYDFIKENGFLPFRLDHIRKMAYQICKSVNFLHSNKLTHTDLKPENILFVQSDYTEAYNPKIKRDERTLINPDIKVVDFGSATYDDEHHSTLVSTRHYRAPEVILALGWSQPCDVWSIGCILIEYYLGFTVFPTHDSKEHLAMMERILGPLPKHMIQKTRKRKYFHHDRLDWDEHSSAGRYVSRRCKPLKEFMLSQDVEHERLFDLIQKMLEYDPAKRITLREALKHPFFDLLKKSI
T1 sequence (O15075 whole entry, the tested form may be a part): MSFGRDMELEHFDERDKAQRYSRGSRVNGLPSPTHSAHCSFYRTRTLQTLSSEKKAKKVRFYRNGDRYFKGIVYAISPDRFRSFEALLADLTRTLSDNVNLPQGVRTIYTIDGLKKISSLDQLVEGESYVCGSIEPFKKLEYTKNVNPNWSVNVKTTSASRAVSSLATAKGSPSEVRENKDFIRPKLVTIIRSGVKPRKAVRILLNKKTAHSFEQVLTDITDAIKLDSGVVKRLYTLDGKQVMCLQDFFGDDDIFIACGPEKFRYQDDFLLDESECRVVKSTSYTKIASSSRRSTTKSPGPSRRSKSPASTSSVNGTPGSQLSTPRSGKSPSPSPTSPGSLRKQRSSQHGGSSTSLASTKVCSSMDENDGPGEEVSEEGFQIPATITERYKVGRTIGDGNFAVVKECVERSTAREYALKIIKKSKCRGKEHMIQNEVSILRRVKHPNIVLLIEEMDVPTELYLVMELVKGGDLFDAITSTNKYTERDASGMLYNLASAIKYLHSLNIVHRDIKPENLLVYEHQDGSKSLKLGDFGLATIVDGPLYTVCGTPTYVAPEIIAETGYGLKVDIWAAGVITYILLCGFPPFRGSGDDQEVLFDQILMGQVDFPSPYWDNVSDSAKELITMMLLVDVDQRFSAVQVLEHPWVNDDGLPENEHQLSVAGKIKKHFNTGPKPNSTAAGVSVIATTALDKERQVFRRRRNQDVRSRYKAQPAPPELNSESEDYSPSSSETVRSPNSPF
T4 sequence (O95747 whole entry, the tested form may be a part): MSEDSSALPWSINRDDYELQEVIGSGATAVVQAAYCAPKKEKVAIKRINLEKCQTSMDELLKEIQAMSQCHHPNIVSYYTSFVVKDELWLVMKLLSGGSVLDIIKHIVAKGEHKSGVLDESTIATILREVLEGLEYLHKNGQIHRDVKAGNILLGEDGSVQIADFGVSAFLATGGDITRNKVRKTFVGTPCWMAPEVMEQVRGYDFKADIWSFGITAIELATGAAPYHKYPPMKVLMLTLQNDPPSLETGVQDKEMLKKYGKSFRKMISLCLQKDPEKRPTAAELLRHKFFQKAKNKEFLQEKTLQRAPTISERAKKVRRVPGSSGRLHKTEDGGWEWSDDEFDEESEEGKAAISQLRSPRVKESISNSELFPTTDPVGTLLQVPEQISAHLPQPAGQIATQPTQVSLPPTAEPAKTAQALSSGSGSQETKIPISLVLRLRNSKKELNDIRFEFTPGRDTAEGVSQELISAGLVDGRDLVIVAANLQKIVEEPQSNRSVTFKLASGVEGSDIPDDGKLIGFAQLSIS
T12 sequence (Q96SB4 whole entry, the tested form may be a part): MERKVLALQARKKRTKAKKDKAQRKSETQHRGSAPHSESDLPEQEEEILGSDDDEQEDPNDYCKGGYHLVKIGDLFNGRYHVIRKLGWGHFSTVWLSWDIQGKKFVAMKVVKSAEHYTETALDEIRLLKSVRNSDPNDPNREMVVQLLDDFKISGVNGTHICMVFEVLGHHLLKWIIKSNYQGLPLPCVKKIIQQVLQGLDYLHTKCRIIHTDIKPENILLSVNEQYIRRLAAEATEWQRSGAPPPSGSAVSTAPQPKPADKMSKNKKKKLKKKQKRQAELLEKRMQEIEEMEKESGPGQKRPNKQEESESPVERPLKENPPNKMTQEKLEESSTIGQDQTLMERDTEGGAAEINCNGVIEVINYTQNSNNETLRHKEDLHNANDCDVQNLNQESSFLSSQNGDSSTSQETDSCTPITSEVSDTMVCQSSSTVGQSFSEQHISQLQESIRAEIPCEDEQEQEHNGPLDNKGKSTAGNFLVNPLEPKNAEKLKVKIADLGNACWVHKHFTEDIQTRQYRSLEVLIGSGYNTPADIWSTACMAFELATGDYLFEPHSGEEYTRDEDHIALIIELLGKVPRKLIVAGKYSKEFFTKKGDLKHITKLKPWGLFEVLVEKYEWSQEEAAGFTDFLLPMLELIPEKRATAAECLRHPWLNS

Structure (SMILES): C[C@@H]1CN(c2cc(-c3n[nH]c4ccc(OC5(C)CC5)cc34)ncn2)C[C@H](C)O1 [MLi2]
- dTm [1]: 0.51 K
- dTm [2]: 1.94 K
- dTm [3]: 0.38 K
- dTm [4]: 0.07 K
- dTm [5]: 1.83 K
- dTm [6]: 0.49 K
- dTm [7]: 3.00 K
- dTm [8]: 3.51 K
- dTm [9]: -0.15 K
- dTm [10]: 0.09 K
- dTm [11]: 0.23 K
- dTm [12]: 0.11 K
- dTm [13]: 0.11 K
- dTm [14]: 0.27 K
- dTm [15]: -0.44 K
- dTm [16]: 0.43 K
- dTm [17]: 0.12 K
- # >5K [17]: 2
- S(5K) [17]: 0.019

Structure (SMILES): Cn1cc(-c2c[nH]c3ncnc(N4CCOCC4)c23)cc1C#N [PFE-360]
- dTm [1]: 0.62 K
- dTm [2]: 1.10 K
- dTm [3]: -2.21 K
- dTm [4]: -0.14 K
- dTm [5]: 0.78 K
- dTm [6]: 0.55 K
- dTm [7]: 7.59 K
- dTm [8]: 5.46 K
- dTm [9]: 0.0126 K
- dTm [10]: 6.99 K
- dTm [11]: 0.58 K
- dTm [12]: -0.23 K
- dTm [13]: 0.0159 K
- dTm [14]: -0.25 K
- dTm [15]: -0.26 K
- dTm [16]: 2.72 K
- dTm [17]: -0.51 K
- # >5K [17]: 12
- S(5K) [17]: 0.118
